Data: patent publication US9045523B2, “Compounds” (PHAROS PHARMACEUTICALS INC., priority 2006, dated 2015)

What was measured:
[1] = test system: FGF receptors; conditions: Yeh et al; cited from earlier work
[2] = test system: IL-2 synthesis; test: PHA stimulated human whole blood cytokine synthesis: IL-2; type: cell-based; conditions: 0.01 μM, days 1-4
Description: (§1) Blood was taken from a healthy young volunteer, into heparin Vacutainers®. Whole-blood was diluted to give a final concentration of 1/10 in culture medium (CM). CM consisted of RPMI 1640 with L-glutamine, penicillin and streptomycin. PHA (phytohaemagglutinin) solution and N-acetyl-β,β-diglucosylamine octasulphate (DOS) and PHA solution were added to non-control samples. Final drug concentrations tested were 100 μM, 1 μM, 0.1 μM and 0.01 μM. All samples were tested in triplicate.
(§2) Reagents were placed in four sets of 24-well (6×4) flat-bottomed plates (Corning US) and incubated for 1, 2, 3 and 4 days respectively (incubator conditions: 37° C., humid and 5% CO2). […]
(§3) The protocol of Lagrelius et al. was followed (Cytokine, 2006, 33, pp. 156-165). The culture supernatants were analysed once for concentrations of IL-1α, IL-1β, IL-2, IL-4, IL-5, IL-6, IL-7, IL-10, IL-12, IL-13, IL-17, IFNγ, GCSF, GM-CSF, MCP-1, RANTES, VEGF and TNFα. The cytokines were measured simultaneously using a Bio-Plex assay. […] A monoclonal antibody specific for each cytokine of interest is coupled onto a particular set of beads with a known internal fluorescence, and several combinations of cytokine antibody coated beads can be included and thus multiple cytokines are measured simultaneously. […] A minimum of 100 beads per region were analysed. […]

[3] = test system: IL-1β synthesis; test: PHA stimulated human whole blood cytokine synthesis: IL-1β; type: cell-based; conditions: 0.01 μM, days 1-4
Description: as §1, §2, §3

[4] = test system: IL-7 synthesis; test: PHA stimulated human whole blood cytokine synthesis: IL-7; type: cell-based; conditions: 0.01 μM, days 1-4
Description: as §1, §2, §3

[5] = test system: GCSF synthesis; test: PHA stimulated human whole blood cytokine synthesis: GCSF; type: cell-based; conditions: 0.01 μM, days 1-4
Description: as §1, §2, §3

[6] = test system: TNFα synthesis; test: TNFα synthesis in whole blood stimulated with 5 μg/ml PHA; type: cell-based; conditions: human whole blood 1:10, 5 μg/ml PHA for 4 days; 0.01, 0.1 or 1 μM; ELISA days 1-4
Description: Human whole blood was diluted 1:10 in RPMI and stimulated with 5 μg/ml phytohaemagglutinin (PHA) for 4 days in the absence or presence of N-acetyl-β,β-diglucosylamine octasulphate (DOS) or N-acetyl-β,β-diglucosylamine oligosulphate 1200 at concentrations of 0.01, 0.1 or 1 μM. The TNFα concentrations were assayed by ELISA on days 1, 2, 3 and 4.

[7] = test system: TNFα synthesis; test: LPS stimulated U937 macrophage TNFα synthesis; type: cell-based, human; conditions: PMA differentiated U937; 80 nM lps 72 hours; 0.10, 1.00, 10.00 and 100.00 μM
Description: U937 human monocytes were incubated with 5 μg/ml PMA (phorbol myristate acetate) for 5 days in order to induce differentiation. N-acetyl-β,β-diglucosylamine octasulphate (DOS) was added to the macrophages produced at concentrations of 0 (control), 0.10, 1.00, 10.00 and 100.00 μM.

[8] = test system: IL-1α synthesis; test: PHA stimulated human whole blood cytokine synthesis: IL-1α; type: cell-based; conditions: 0.01 μM, days 1-4
Description: as §1, §2, §3

[9] = test system: IL-17 synthesis; test: PHA stimulated human whole blood cytokine synthesis: IL-17; type: cell-based; conditions: 0.01 μM, days 1-4
Description: as §1, §2, §3

[10] = test system: IL-13 synthesis; test: PHA stimulated human whole blood cytokine synthesis: IL-13; type: cell-based; conditions: 0.01 μM, days 1-4
Description: as §1, §2, §3

[11] = test system: IL-6 synthesis; test: PHA stimulated human whole blood cytokine synthesis: IL-6; type: cell-based; conditions: 0.01 μM, days 1-4
Description: as §1, §2, §3

[12] = test system: GM-CSF synthesis; test: PHA stimulated human whole blood cytokine synthesis: GM-CSF; type: cell-based; conditions: 0.01 μM, days 1-4
Description: as §1, §2, §3

[13] = test system: VEGF synthesis; test: PHA treated human whole blood cytokine synthesis: VEGF; type: cell-based; conditions: 0.01 μM; human whole blood in which VEGF synthesis has been inhibited by PHA; days 1-4
Description: as §1, §2, §3

[14] = test system: IL-4 synthesis; test: PHA stimulated human whole blood cytokine synthesis: IL-4; type: cell-based; conditions: 0.01 μM, days 1-4
Description: as §1, §2, §3

[15] = test system: TNFα synthesis; test: PHA stimulated human whole blood cytokine synthesis: TNFα; type: cell-based; conditions: 0.01 μM, days 1-4, Bio-Plex
Description: as §1, §2, §3

[16] = test system: IL-10 synthesis; test: PHA stimulated human whole blood cytokine synthesis: IL-10; type: cell-based; conditions: 0.01 μM, days 1-4
Description: as §1, §2, §3

[17] = test system: IL-5 synthesis; test: PHA stimulated human whole blood cytokine synthesis: IL-5; type: cell-based; conditions: 0.01 μM, days 1-4
Description: as §1, §2, §3

[18] = test system: IFNγ synthesis; test: PHA stimulated human whole blood cytokine synthesis: IFNγ; type: cell-based; conditions: 0.01 μM, days 1-4
Description: as §1, §2, §3

[19] = Cahalon et al; cited from earlier work
[20] = test system: β-glucosidases; conditions: Kolarova et al; cited from earlier work
[21] = test system: interleukin-10 synthesis; conditions: antigen stimulated mice spleen cells in vitro; cited from earlier work
[22] = test system: interleukin-2 synthesis; conditions: antigen stimulated mice spleen cells in vitro; cited from earlier work
[23] = test system: articular inflammation; conditions: cited from earlier work
[24] = test system: antigen stimulated mice spleen cells; conditions: in vitro; cited from earlier work
[25] = test system: IFN synthesis; conditions: antigen stimulated mice spleen cells in vitro; cited from earlier work
[26] = test system: feline herpes infection; conditions: reactivation of feline herpes infection; Roberts et al; cited from earlier work
[27] = acid conditions of the stomach; cited from earlier work
[28] = biological target: follistatin (Rattus norvegicus, UniProt P21674); conditions: Innis et al; cited from earlier work
Sequence of follistatin (P21674 93-165 limits assumed): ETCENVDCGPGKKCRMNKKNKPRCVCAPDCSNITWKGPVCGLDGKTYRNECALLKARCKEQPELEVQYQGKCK

[29] = test system: C-type lectin-like domain of a recombinant natural killer cell receptor; conditions: Kogelberg et al; cited from earlier work
[30] = biological target: hepatocyte growth factor (Homo sapiens, UniProt P14210); conditions: Zhou et al; cited from earlier work
Sequence of hepatocyte growth factor (P14210 31-127 limits assumed, species assumed): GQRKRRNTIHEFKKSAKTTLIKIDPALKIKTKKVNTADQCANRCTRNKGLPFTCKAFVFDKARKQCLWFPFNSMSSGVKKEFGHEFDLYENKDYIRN

[31] = biological target: pro-inflammatory chemokine MCP-1 (Homo sapiens, UniProt P13500); conditions: Yonghao et al; cited from earlier work
Sequence of pro-inflammatory chemokine MCP-1 (P13500 24-99): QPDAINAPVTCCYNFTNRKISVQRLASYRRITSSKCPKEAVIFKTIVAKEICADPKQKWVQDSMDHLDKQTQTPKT

[32] = test system: inflamed joints; conditions: Ronca et al; cited from earlier work

Compound: 2-hydroxysucrose heptasulphate
- FGF dependent dimerisation of FGF receptors [1]: much lesser extent

Compound: 4,6-dihydroxysucrose hexasulphate
- FGF dependent dimerisation of FGF receptors [1]: not at all

Compound: CC(=O)N([C@@H]1O[C@H](COS(=O)(=O)O)[C@@H](OS(=O)(=O)O)[C@H](OS(=O)(=O)O)[C@H]1OS(=O)(=O)O)[C@@H]1O[C@H](COS(=O)(=O)O)[C@@H](OS(=O)(=O)O)[C@H](OS(=O)(=O)O)[C@H]1OS(=O)(=O)O [N-acetyl-β,β-diglucosylamine octasulphate]
- PHA stimulated synthesis of IL-2 [2]: inhibits
- PHA stimulated synthesis of IL-1β [3]: inhibits
- level of IL-7 [4]: increased
- PHA stimulated synthesis of GCSF [5]: inhibits
- inhibition of TNFα synthesis [6]: effectively inhibit TNFα synthesis
- inhibition of TNFα synthesis [7]: inhibited TNFα synthesis at all concentrations down to 0.1 μM
- PHA stimulated synthesis of IL-1α [8]: inhibits
- PHA stimulated synthesis of IL-17 [9]: inhibits
- PHA stimulated synthesis of IL-13 [10]: inhibits
- PHA stimulated synthesis of IL-6 [11]: inhibits
- PHA stimulated synthesis of GM-CSF [12]: inhibits
- level of VEGF [13]: increased
- PHA stimulated synthesis of IL-4 [14]: inhibits
- PHA stimulated synthesis of TNFα [15]: inhibits
- PHA stimulated synthesis of IL-10 [16]: inhibits
- PHA stimulated synthesis of IL-5 [17]: inhibits
- PHA stimulated synthesis of IFNγ [18]: inhibits

Compound: CC(=O)N[C@H]1C(O)O[C@H](CO)[C@@H](O[C@@H]2OC(C(=O)O)=C[C@H](O)[C@H]2O)[C@@H]1O (stereo partly drawn) [desulphated heparin disaccharide, O-(α-L-ido-4-enepyranosyluronic acid)-(1→4)-2-deoxy-N-acetyl-D-glucoseamine]
- effectiveness as an anti-inflammatory agent [19]: ineffective

Compound: OC[C@H]1O[C@@H](N[C@@H]2O[C@H](CO)[C@@H](O)[C@H](O)[C@H]2O)[C@H](O)[C@@H](O)[C@@H]1O [di-β-D-glucosylamine]
- inhibition of β-glucosidases [20]: inhibit β-glucosidases
- interleukin-10 synthesis [21]: inhibits
- interleukin-2 synthesis [22]: inhibits
- articular inflammation ([23]; mice, parenteral routes, Bolton et al): inhibits articular inflammation
- activity by the oral route ([23]; oral route): inactive
- antigen induced immune cell proliferation [24]: inhibits
- IFN synthesis [25]: inhibits
- development of ocular inflammation [26]: prevents the development of ocular inflammation
- hydrolysis of the glycosylamine group [27]: readily hydrolysed

Compound: O=S(=O)(O)OC[C@H]1O[C@@](COS(=O)(=O)O)(O[C@H]2O[C@H](COS(=O)(=O)O)[C@@H](OS(=O)(=O)O)[C@H](OS(=O)(=O)O)[C@H]2OS(=O)(=O)O)[C@@H](OS(=O)(=O)O)[C@@H]1OS(=O)(=O)O [sucrose octasulphate]
- FGF dependent dimerisation of FGF receptors [1]: induced FGF dependent dimerisation of FGF receptors
- binding to follistatin [28]: bind
- binding to natural killer cell receptor C-type lectin-like domain [29]: bind
- binding to hepatocyte growth factor [30]: bind
- binding to MCP-1 [31]: bind

Compound: chondroitin sulphate
- inflammatory cell accumulation and inflammation [32]: reduces inflammatory cell accumulation and inflammation
